Reference: PubChem BioAssay AID1996
In brackets after ≈: the same amount, converted by molar mass.

Details: buffer; pH 7.4; 200.0 µM

Structure (SMILES) | solubility kinetic [µg/mL]
Cc1cc(-c2cccs2)c(C#N)c(=S)[nH]1 | 28.3 (≈ 122 µM)
Cn1c(=O)c2ccccc2n(CC(=O)NC2CCCCC2)c1=O | 8 (≈ 25.4 µM)
O=S(=O)(Nc1cc(Cl)cc(Cl)c1)N1CCOCC1 | > 46.7
CN(C)c1ccc(NC(=O)Nc2csc3ccccc23)cc1 | 0.7 (≈ 2.25 µM)
COc1cccc(OC)c1C(=O)NCCOc1cc(C)cc(C)c1 | 28.3 (≈ 85.9 µM)
O=C(O)c1ccc(Cn2cnc3cccnc32)cc1 | > 38
O=C(OCC(=O)N1CCOCC1)c1ccc(F)cc1Cl | > 45.3
Cc1ccnc2nc(NC(=O)c3ccco3)nn12 | > 36.5
Cn1c(Nc2ccccc2)nc2ccccc21 | 25.9 (≈ 116 µM)
Cc1ccc(OCCc2csc(N)n2)cc1 | 34.8 (≈ 149 µM)
CC(C)(C)C(=O)COc1ccccc1[N+](=O)[O-] | > 35.6
Cc1ccc(S(=O)(=O)CCSc2ccc(C(F)(F)F)cn2)cc1 | < 0.8
O=C1NC2(CCCC2)Oc2ccccc21 | > 30.5
COc1ccccc1C(=O)NC1CCSc2ccccc21 (stereo not given) | 31.5 (≈ 105 µM)
C=CCOc1cccc(/C=C\c2nc(O)c([N+](=O)[O-])c(=O)[nH]2)c1 | > 47.3
CN1CCN(C(=O)/C(=C/c2ccco2)NC(=O)c2ccccc2)CC1 | 40.7 (≈ 120 µM)
CC(=O)CC(C)(C)Nc1nc2ccc([N+](=O)[O-])cc2o1 | > 41.6
N#Cc1c(C(F)(F)F)cc(=O)[nH]c1SCC(=O)O | > 41.7
Cc1cc(C)n2c(SCC(=O)Nc3cccc(S(N)(=O)=O)c3)nnc2n1 | > 58.9
CN1C(=O)N(C)C(c2cccc([N+](=O)[O-])c2)C2=C1CCCC2=O (stereo not given) | > 47.3
CC1=C(C(N)=O)C(c2cccs2)NC(=O)N1 (stereo not given) | > 35.6
Fc1ccccc1-c1nc2nc3ccccc3nc2n1CC1CCCO1 (stereo not given) | > 52.3
CN(C)C(=O)CN1C(=O)NC2(CCc3ccccc32)C1=O (stereo not given) | > 43.1
O=C(CN1CCOCC1)NN=C(c1ccccc1)c1ccccc1 | > 48.5

Structure (SMILES) | solubility kinetic [µg/mL]
CN(C)C(=S)Nc1ccc(N2CCOCC2)cc1 | > 39.8
Cn1cnc2c1c(=O)n(Cc1ccc(Cl)cc1Cl)c(=O)n2C | > 50.9
O=C(OCC(=O)N1CCC(Cc2ccccc2)CC1)c1cccnc1Cl | 46.2 (≈ 124 µM)
Cc1cc(C)n(NC(=S)NC2CCCCC2)c(=O)c1C#N | > 45.7
O=C(NCC1CC1)Nc1cccs1 | > 29.4
CC(=O)c1cccc(NC(=O)Nc2ccc3c(c2)OCO3)c1 | 3.1 (≈ 10.4 µM)
O=C(Nc1ccc([N+](=O)[O-])cn1)c1cccnc1 | 7.2 (≈ 29.5 µM)
CCCc1nc2oc3c(Cl)ncnc3c2c2c1CCCC2 | < 0.2
Cn1c(N)c(C(=O)COC(=O)CCC2CCCC2)c(=O)n(C)c1=O | > 50.6
CCOC(=O)Cn1cnc2scc(-c3ccc(C)cc3)c2c1=O | 38.2 (≈ 116 µM)
O=c1[nH]cc(N(CCO)CCO)c(=O)[nH]1 | > 32.3
O=C(NCCc1ccccc1)C1CCC(=O)N1CCc1ccccc1 (stereo not given) | 46.2 (≈ 137 µM)
COc1ccccc1CNC(=O)COC(=O)c1cc(C)nc2ccccc12 | 14.6 (≈ 40.1 µM)
CCCNC(=O)CN1C(=O)NC(CCc2ccccc2)C1=O (stereo not given) | > 45.5
Cc1ccc(C(=O)NCCNC(=O)COc2ccccc2Cl)cn1 | > 52.2
c1ccc(-c2nc(NC3CCCC3)c3ccccc3n2)cc1 | 3.1 (≈ 10.7 µM)
CC1CCC(NC(=O)COC(=O)c2ccco2)CC1 (stereo not given) | > 39.8
Cc1ccc(S(=O)(=O)N2CC=C(C(=O)NCCC(C)C)CC2)cc1 | 41.7 (≈ 119 µM)
Cc1cc2oc(C(=O)N3CCN(Cc4ccccc4)CC3)c(C)c2cc1C | 3.7 (≈ 10.2 µM)
CC(=O)N(C)c1ccc(NC(=O)Cc2cccc3ccccc23)cc1 | 3.9 (≈ 11.7 µM)
O=C(C1=C(O)C(=O)N(c2ncccn2)C1c1ccc(F)cc1)c1ccco1 (stereo not given) | 53.1 (≈ 145 µM)
CCNC(=O)CC1C(=O)N(c2ccc(C)cc2)C(=O)N1CCOC (stereo not given) | > 50
O=c1[nH]n2cc(-n3cc([N+](=O)[O-])cn3)cnc2c1Br | > 48.8
Cc1ccnc(SCC(=O)Nc2sccc2C#N)n1 | 13.2 (≈ 45.5 µM)

Structure (SMILES) | solubility kinetic [µg/mL]
O[C@@H]1CN(Cc2ccccc2Cl)CC[C@H]1N1CCOCC1 | 39.9 (≈ 128 µM)
COc1ccc(NC(=O)NC2(C)CCS(=O)(=O)C2)cc1 (stereo not given) | > 44.8
Cc1nc(-c2ccccc2)[nH]c(=O)c1Oc1ccc(Cl)cc1Cl | < 0.4
Cc1cc(C)c(NC(=O)CNC(=O)c2ccc3ncsc3c2)c(C)c1 | 6.7 (≈ 19 µM)
COc1ccc(CNC(=O)c2cc(=O)c3c(C)cc(C)cc3o2)cc1 | < 0.7
S=C(Nc1nc2c(s1)CCCC2)NC1CC1 | 5.7 (≈ 22.5 µM)
O=C(CC(c1ccccc1)c1cc(Cl)ccc1O)N1CCCC1 (stereo not given) | > 49.5
COC(=O)c1sccc1NC(=O)CNC(=O)c1ccccc1 | > 47.8
CCOc1c(N2CC(C)OC(C)C2)c(=O)c1=O (stereo not given) | > 35.9
Cc1cc(NS(=O)(=O)c2ccc(NC(=O)CNS(=O)(=O)c3ccccc3)cc2)nc(C)n1 | 67.3 (≈ 142 µM)
CCOC(=O)c1cc2c(=O)c3cc(C)ccc3oc2nc1C | < 0.6
O=C(COc1ccc([N+](=O)[O-])cc1)NCCc1nc2ccccc2[nH]1 | 8.5 (≈ 25 µM)
Fc1cccc(NC(=S)Nc2cccnc2)c1 | > 37.1
COc1ccc(NC(=O)Nc2cccc3ccccc23)c(OC)c1 | 0.5 (≈ 1.55 µM)
CCC(C)NCCCOc1ccc(C)cc1OC (stereo not given) | 35.1 (≈ 140 µM)
O=C(Nc1cccc(-c2nc3ccccc3[nH]2)c1)c1ccccn1 | 6.2 (≈ 19.7 µM)
Fc1cccc(NC(=S)N2CCn3cccc3C2c2cccnc2)c1 (stereo not given) | 51.9 (≈ 147 µM)
CC1=C(c2ccccc2)C(=S)NC(C)(C)C1 | 2.5 (≈ 10.8 µM)
CCC(C(=O)Nc1nc(C)c(C(=O)OC)s1)c1ccccc1 (stereo not given) | 22.6 (≈ 71 µM)
Cc1cc(OC(=O)c2ccc(C(C)(C)C)cc2)c([N+](=O)[O-])c(=O)[nH]1 | 46.4 (≈ 140 µM)
Cc1cccc2c(C(=O)O)c3cccc(C)c3nc12 | 34 (≈ 135 µM)
O=C(NC1CCCN(Cc2ccccc2F)C1)C1CCC1 (stereo not given) | > 43.6
O=C(NC(=S)NC1CCSC1=O)c1ccc([N+](=O)[O-])cc1 (stereo not given) | 40.6 (≈ 125 µM)
COc1ccc(NC(=O)C2CCN(c3cnccn3)CC2)cc1OC | 24.7 (≈ 72.1 µM)

Structure (SMILES) | solubility kinetic [µg/mL]
Cc1cccc(NC(=O)c2ccccc2C(=O)Nc2cccc(C)c2)c1 | 3 (≈ 8.71 µM)
CCOc1nc2ccccc2nc1NS(=O)(=O)c1ccc(Cl)cc1 | > 54.6
NS(=O)(=O)c1ccc(NC(=O)c2cc(=O)c3ccccc3o2)cc1 | 18.7 (≈ 54.3 µM)
N#Cc1ccc(COC(=O)c2cnc(Cl)c(Cl)c2)cc1 | 1.4 (≈ 4.56 µM)
CC(C)c1ncc(C(O)c2ccccc2)n1C (stereo not given) | > 34.5
Cc1cc(Cl)ccc1NC(=S)NC(C)(C)C | 28.3 (≈ 110 µM)
CC(C(=O)OCC(=O)NC1CCCCC1)N1C(=O)c2ccccc2C1=O (stereo not given) | > 53.8
O=C(Nc1cccc2ccccc12)NC(Cc1ccccc1)C(=O)O (stereo not given) | > 50.2
Nc1ccc(OCCc2ccccc2)cc1 | 28.3 (≈ 133 µM)
CCN1C(=O)CC(NCc2ccc(S(N)(=O)=O)cc2)C1=O (stereo not given) | > 46.7
COc1ccc(C2N(c3ccccc3)C(=O)C2(F)F)cc1OC (stereo not given) | 36.2 (≈ 113 µM)
CCCn1cnc2c(oc3ccccc32)c1=O | > 34.2
Cc1cc([N+](=O)[O-])nn1CC(=O)N1CCN(Cc2ccccc2)CC1 | > 51.5
CCOc1ncccc1C(=O)N(CCC(C)C)c1c(N)n(Cc2ccccc2)c(=O)[nH]c1=O | 3.3 (≈ 7.31 µM)
N/C(=N\OC(=O)c1ccc([N+](=O)[O-])cc1)c1ccc(Br)cc1 | < 0.3
CCOc1ccc(S(=O)(=O)NCc2ccccn2)c(C)c1C | > 48.1
CC(C)c1ccccc1NC(=S)N(C)C | > 33.4
CCOc1ccc(CN2CCC(Cc3ccccc3)CC2)cc1 | 24.3 (≈ 78.5 µM)
CC1CC(C)CN(C(=O)C2CC(=O)N(c3ccc(F)cc3)C2)C1 (stereo not given) | 34.7 (≈ 109 µM)
O=C(O)CN1CCN(C(c2ccccc2)c2ccccc2)CC1 | > 46.6
CCC(=O)c1ccc(OCC(=O)NC2CCN(Cc3ccccc3)CC2)cc1 | > 57.1
COc1ccccc1CNC(=O)COc1ccccc1C | 38.4 (≈ 135 µM)
O=C(CN1C(=O)c2ccccc2S1(=O)=O)c1ccc(F)c(F)c1 | 48.2 (≈ 143 µM)
O=[N+]([O-])c1ccc(N2CCCCC2)nc1N1CCCCC1 | 5.3 (≈ 18.3 µM)

Structure (SMILES) | solubility kinetic [µg/mL]
COc1cccc(-n2c(O)c(C=NCCN3CCNCC3)c(=O)[nH]c2=S)c1 | > 58.4
CCOC(=O)N1CCC(NS(=O)(=O)c2ccccc2)CC1 | > 46.9
CN1C(=O)/C(=C/C=C2\SCCN2C)OC1=S | 4.4 (≈ 17.2 µM)
COc1ccc2[nH]c(C(=O)NCc3ccc4c(c3)OCO4)cc2c1 | 1.1 (≈ 3.39 µM)
COC(=O)c1ccc(Oc2nc(SC)nc(N(C)C)n2)cc1 | 2.1 (≈ 6.55 µM)
O=C(/C=C/c1ccccc1)Nc1cccnc1Cl | 38.8 (≈ 150 µM)
Cn1cnnc1SCC(=O)Nc1ccc(N2CCOCC2)cc1 | > 50
COc1ccc(NC(=O)c2c(N)no[n+]2[O-])cc1 | 3 (≈ 12 µM)
COC(=O)c1sccc1NC(=O)Nc1ccc(OC)cc1OC | 15.4 (≈ 45.8 µM)
COc1cccc(NCc2cc(=O)oc3cc(C)c(C(C)C)cc23)c1 | 2.8 (≈ 8.3 µM)
COc1ccc(/C=C2\C(=O)NC(=S)N(C)C2=O)cc1C | > 43.6
COc1ccnc2c1c(=O)n(Cc1ccccc1Cl)c(=O)n2C | 36 (≈ 109 µM)
O=C(CCS(=O)(=O)c1ccccc1)Nc1nc(-c2ccc(F)cc2)cs1 | < 0.4
FC(F)(F)c1ccccc1-n1ccnc1 | 30.2 (≈ 142 µM)
Cc1cc(NC(=O)c2ccco2)c(=O)n(Cc2c(F)cccc2Cl)c1 | < 0.4
O=S(=O)(c1ccc(Cl)nc1)N1CCN(c2ncccn2)CC1 | 1 (≈ 2.94 µM)
CC1(C)CC(=O)C=C(Nc2ccccc2C#N)C1.Cl | 38.2
COc1ccc(NC(=S)NCCCN2CCOCC2)cc1 | > 46.4
CC12COC3(C(=O)Nc4ccccc4F)CC1CCC32C (stereo not given) | 9.1 (≈ 31.4 µM)
COc1ccccc1NC(=S)NC12CN3CN(CN(C3)C1)C2 | 43.3 (≈ 136 µM)
CS(=O)(=O)N(CC(=O)Nc1ccc(Br)cc1)C1CCCCC1 | 55.5 (≈ 143 µM)
COc1ccc(C(=O)Nc2ccccc2C(=O)Nc2cccnc2)cc1 | 8.8 (≈ 25.3 µM)
S=C(NCc1ccccc1)NCc1ccccc1Cl | 28.4 (≈ 97.7 µM)
Cc1cccc(NC(=O)c2cccnc2Cl)n1 | > 37.2
